Assay results taken from patent publication US9725477B2, “Platinum compounds of malonic acid derivative having leaving group containing amino or alkylamino” (BEIJING FSWELCOME TECHNOLOGY DEVELOPMENT CO., LTD, priority 2012, dated 2017).
Like-named read-outs stand apart in the source and are kept apart here.

Tests used:
Testis cell ST = assay: MTT cytotoxicity, testis cell ST; type: cell-based; conditions: n = 6
gastric cancer MGC803 = assay: MTT cytotoxicity, gastric cancer MGC803; type: cell-based; conditions: n = 6
Esophagus cancer ECA109 = assay: MTT cytotoxicity, esophagus cancer ECA109; type: cell-based; conditions: n = 6
Lung cancer H292 = assay: MTT cytotoxicity, lung cancer H292; type: cell-based; conditions: Lung cancer H292, MTT, n = 6; read-out: cytotoxicity IC50
colon cancer SW480 = assay: MTT cytotoxicity, colon cancer SW480; type: cell-based; conditions: colon cancer SW480, MTT, n = 6; read-out: cytotoxicity IC50
Solubility in water = conditions: compound of the example (salt form) in water
normal mice = assay: in vivo; conditions: method of test example 1; for LD50: Table 1, formula I compounds; for LD50 vALUE: Table 2, formula II compounds
Description: Kunming mice with 4˜6 weeks old and 18 g˜22 g by weight were taken, 50% males and 50% females. […] The condition of mortality and toxicity were observed after administration. Totally observing for 14 days, LD50 value was calculated using Bliss method according to the mortality.

Lung cancer A549 = assay: MTT cytotoxicity, lung cancer A549; conditions: read-out: IC50 of anti-lung cancer A549, method of test example 2
Description: Cell morphologies were observed after being cultivated for 24 hours.

2-(2-diethylaminobutyl)-malonate•cis-1,2-(1,2-dihydroxymethyl)-ethylenediamine platinum (II) phosphate [Compound 20]
IC50 (Testis cell ST): 11 µM
IC50 (gastric cancer MGC803): 4 µM
IC50 (Esophagus cancer ECA109): 17 µM
IC50 (Lung cancer H292): 5 µM

2-(4-diethylaminobutyl)-malonate•cis-(1, 2-trans-cyclopropanediamine) platinum (II) phosphate [Compound 16]
IC50 (Testis cell ST): 10 µM
IC50 (gastric cancer MGC803): 4 µM
IC50 (Lung cancer H292): 5 µM
IC50 (colon cancer SW480): 13 µM

2-(4-diethylaminobutyl)-malonate•cis-(2-aminomethyl-cyclopentylamine) platinum (II) acetate [Compound 27]
IC50 (Testis cell ST): 13 µM
IC50 (gastric cancer MGC803): 5 µM
IC50 (Esophagus cancer ECA109): 54 µM
IC50 (Lung cancer H292): 4 µM

2-(4-diethylaminobutyl)-malonate•cis-ammonia•cyclopentylamine platinum (II) acetate [Compound 26]
IC50 (Testis cell ST): 11 µM
IC50 (gastric cancer MGC803): 1 µM
IC50 (Esophagus cancer ECA109): 91 µM
IC50 (Lung cancer H292): 4 µM

CCN(CC)CCCCC1C(=O)[O][Pt]2([NH]C3CCC3[NH]2)[O]C1=O.O=C(O)CCC(=O)O (racemic) [Compound 15, 2-(4-diethylaminobutyl)-malonate•cis-(1,2-trans-cyclobutanediamine) platinum (II) succinate]
IC50 (gastric cancer MGC803): 3 µM
IC50 (Lung cancer H292): 10 µM
IC50 (colon cancer SW480): 18 µM

CCN(CC)CCCCC1C(=O)[O][Pt]2([NH]CC[NH]2)[O]C1=O.Cc1ccc(S(=O)(=O)O)cc1 [Compound 17, 2-(4-diethylaminobutyl)-malonate•cis-(1,2-ethylenediamine) platinum (II) tosilate]
IC50 (Testis cell ST): 16 µM
IC50 (gastric cancer MGC803): 5 µM
IC50 (Lung cancer H292): 4 µM
solubility (Solubility in water): more than 300 mg/ml
IC50 (colon cancer SW480): 7 µM

CCN(CC)CCCCC1C(=O)[O][Pt]2([NH]CCC[NH]2)[O]C1=O.O=P(O)(O)O [Compound 18, 2-(4-diethylaminobutyl)-malonate•cis-(1,3-propanediamine) platinum (II) phosphate]
IC50 (Testis cell ST): 22 µM
IC50 (gastric cancer MGC803): 2 µM
IC50 (Lung cancer H292): 8 µM
solubility (Solubility in water): more than 300 mg/ml
IC50 (colon cancer SW480): 14 µM

CCN(CC)CCCCC1C(=O)[O][Pt]2([NH]CCCC[NH]2)[O]C1=O.O=P(O)(O)O [Compound 19, 2-(4-diethylaminobutyl)-malonate•cis-(1,4-butanediamine) platinum (II) phosphate]
IC50 (Testis cell ST): 13 µM
IC50 (gastric cancer MGC803): 5 µM
IC50 (Lung cancer H292): 6 µM
solubility (Solubility in water): more than 300 mg/ml
IC50 (colon cancer SW480): 23 µM

CCN(CC)CCCCC1C(=O)[O][Pt]2([NH]CC(CO)(CO)C[NH]2)[O]C1=O.O=P(O)(O)O [Compound 21, 2-(4-diethylaminobutyl)-malonate•cis-1,3-(2,2-hydroxymethyl)-propanediamine platinum (II) phosphate]
IC50 (Testis cell ST): 13 µM
IC50 (gastric cancer MGC803): 5 µM
IC50 (Lung cancer H292): 12 µM
solubility (Solubility in water): more than 300 mg/ml

CCN(C)CC(CCC1C(=O)[O][Pt][O]C1=O)OC.N.N (stereo not drawn) [Compound 30]
LD50 (normal mice): 0.759 mmol/kg
IC50 (Lung cancer A549; Table 1, formula I compounds): 12 µM

CCN(C)CC(CCC1C(=O)[O][Pt][O]C1=O)OC.NC1CCCCC1N (stereo not drawn) [Compound 31]
LD50 (normal mice): 0.732 mmol/kg
IC50 (Lung cancer A549; Table 1, formula I compounds): 5 µM

CC1CCN(CCCCC2C(=O)[O][Pt]3([NH]C4CC=CCC4[NH]3)[O]C2=O)C1 (stereo not drawn) [Compound 33]
LD50 (normal mice): 0.826 mmol/kg
IC50 (Lung cancer A549; Table 1, formula I compounds): 7 µM

CN(CCCCC1C(=O)[O][Pt]2([NH]C3CCCCC3[NH]2)[O]C1=O)C(C)(C)C (stereo not drawn) [Compound 34]
LD50 (normal mice): 0.905 mmol/kg

O=C1[O][Pt]2([NH]C3CCCCC3[NH]2)[O]C(=O)C1CCCCN1CC=CC1 (stereo not drawn) [Compound 35]
LD50 (normal mice): 0.762 mmol/kg
IC50 (Lung cancer A549; Table 1, formula I compounds): 4 µM

NC1CCCCC1N.O=C1[O][Pt][O]C(=O)C1CCC(Cl)CN1CCCCC1 (stereo not drawn) [Compound 36]
LD50 (normal mice): 0.713 mmol/kg
IC50 (Lung cancer A549; Table 1, formula I compounds): 7 µM

CC1CCN(CCCCC2C(=O)[O][Pt]3([NH]C4CCCCC4[NH]3)[O]C2=O)CC1 (stereo not drawn) [Compound 37]
LD50 (normal mice): 0.825 mmol/kg
IC50 (Lung cancer A549; Table 1, formula I compounds): 9 µM

CC1CCCN1CCCCC1C(=O)[O][Pt]2([NH]C3CCCCC3[NH]2)[O]C1=O (stereo not drawn) [Compound 38]
LD50 (normal mice): 0.818 mmol/kg
IC50 (Lung cancer A549; Table 1, formula I compounds): 6 µM

COC1CC(C)N(CCCCC2C(=O)[O][Pt][O]C2=O)C1C.NC1CCCCC1N (stereo not drawn) [Compound 39]
LD50 (normal mice): 0.711 mmol/kg
IC50 (Lung cancer A549; Table 1, formula I compounds): 6 µM

CCN(CC)CCCCC1C(=O)[O][Pt][O]C1=O.NC1CC(O)C(O)CC1N [Compound 40]
LD50 (normal mice): 0.683 mmol/kg
IC50 (Lung cancer A549; Table 1, formula I compounds): 21 µM

CC1CC(Cl)C(C)N1CCCCC1C(=O)[O][Pt]2([NH]C3CCCCC3[NH]2)[O]C1=O (stereo not drawn) [Compound 41]
LD50 (normal mice): 0.675 mmol/kg
IC50 (Lung cancer A549; Table 1, formula I compounds): 13 µM

O=C1[O][Pt]2([NH]C3CCCCC3[NH]2)[O]C(=O)C1CCCCN(C1CCCC1)C1CCCC1 (stereo not drawn) [Compound 42]
LD50 (normal mice): 0.826 mmol/kg
IC50 (Lung cancer A549; Table 1, formula I compounds): 5 µM

CN(CCCCC1C(=O)[O][Pt]2([NH]C3CCCCC3[NH]2)[O]C1=O)C1CCCC1 (stereo not drawn) [Compound 43]
LD50 (normal mice): 0.841 mmol/kg
IC50 (Lung cancer A549; Table 1, formula I compounds): 5 µM

CN(C)CCCCC1C(=O)[O][Pt][O]C1=O.NC1CCC(N)C1 [Compound 44]
LD50 (normal mice): 0.857 mmol/kg
IC50 (Lung cancer A549; Table 1, formula I compounds): 24 µM

CC1CC(C)[NH][Pt]2([NH]1)[O]C(=O)C(CCCCN(C)C)C(=O)[O]2 (stereo not drawn) [Compound 45]
LD50 (normal mice): 0.834 mmol/kg
IC50 (Lung cancer A549; Table 1, formula I compounds): 31 µM

CN(C)CCCCC1C(=O)[O][Pt][O]C1=O.NCC1CN1 [Compound 46]
LD50 (normal mice): 0.823 mmol/kg
IC50 (Lung cancer A549; Table 1, formula I compounds): 27 µM

CN(C)CCCCC1C(=O)[O][Pt][O]C1=O.NCC1CCN1 [Compound 47]
LD50 (normal mice): 0.815 mmol/kg
IC50 (Lung cancer A549; Table 1, formula I compounds): 23 µM

CN(C)CCCCC1C(=O)[O][Pt][O]C1=O.NCC1CCCN1 [Compound 48]
LD50 (normal mice): 0.831 mmol/kg
IC50 (Lung cancer A549; Table 1, formula I compounds): 31 µM

CN(C)CCCCC1C(=O)[O][Pt][O]C1=O.NCC1CCCCN1 [Compound 49]
LD50 (normal mice): 0.817 mmol/kg
IC50 (Lung cancer A549; Table 1, formula I compounds): 45 µM

O=C1[O][Pt]2([NH]C3CCCCC3[NH]2)[O]C(=O)C1CCCCN1CCOCC1 (stereo not drawn) [Compound 51]
LD50 (normal mice): 0.654 mmol/kg
IC50 (Lung cancer A549; Table 1, formula I compounds): 26 µM

CN(CO)CCCCC1C(=O)[O][Pt]([NH2])([NH]C2CCC2)[O]C1=O (stereo not drawn) [Compound 52]
LD50 (normal mice): 0.687 mmol/kg
IC50 (Lung cancer A549; Table 1, formula I compounds): 41 µM

CCN(C)CC(O)CCC1C(=O)[O][Pt][O]C1=O.NC1CCCCC1N (stereo not drawn) [Compound 54]
LD50 (normal mice): 0.792 mmol/kg

CCN(CC)CCCCC1C(=O)[O][Pt]([NH]C2CCCC2)([NH]C2CCCC2)[O]C1=O [Compound 55]
LD50 (normal mice): 0.852 mmol/kg
IC50 (Lung cancer A549; Table 1, formula I compounds): 61 µM

O=C1[O][Pt]([NH]C2CCCC2)([NH]C2CCCC2)[O]C(=O)C1CCCCN(C1CC1)C1CC1 [Compound 56]
LD50 (normal mice): 0.816 mmol/kg
IC50 (Lung cancer A549; Table 1, formula I compounds): 57 µM

CN(CCCCC1C(=O)[O][Pt]2([NH]C3CCCCC3[NH]2)[O]C1=O)Cc1ccccc1 (stereo not drawn) [Compound 57]
LD50 (normal mice): 0.613 mmol/kg

CN(CCCCC1C(=O)[O][Pt]2([NH]C3CCCCC3[NH]2)[O]C1=O)Cc1ccc(Cl)cc1 (stereo not drawn) [Compound 58]
LD50 (normal mice): 0.607 mmol/kg
IC50 (Lung cancer A549; Table 1, formula I compounds): 37 µM

CN(CCCCC1C(=O)[O][Pt]([NH2])([NH2])[O]C1=O)Cc1ccc(Cl)cc1F [Compound 59]
LD50 (normal mice): 0.598 mmol/kg
IC50 (Lung cancer A549; Table 1, formula I compounds): 68 µM

CCCCN(C)CCCCC1C(=O)[O][Pt]2([NH][C@H]3CCCC[C@H]3[NH]2)[O]C1=O (stereo partly drawn) [Compound 60]
LD50 (normal mice): 0.875 mmol/kg
IC50 (Lung cancer A549; Table 1, formula I compounds): 9 µM

CCCN.CCN(CC)CCCCC1C(=O)[O][Pt][O]C1=O.NC1CC=NC1 [Compound 63]
LD50 (normal mice): 0.804 mmol/kg
IC50 (Lung cancer A549; Table 1, formula I compounds): 25 µM

CCCC[N+](C)(C)CCCCC1C(=O)[O][Pt]2([NH][C@H]3CC(OC)C(OC)C[C@H]3[NH]2)[O]C1=O (stereo partly drawn) [Compound 65]
LD50 vALUE (normal mice): 0.615 mmol/kg
IC50 (Lung cancer A549; Table 2, formula II compounds): 16 µM

CC[N+](CC)(CC)CCCCC1C(=O)[O][Pt]([NH2])([NH2])[O]C1=O [Compound 66]
LD50 vALUE (normal mice): 0.677 mmol/kg
IC50 (Lung cancer A549; Table 2, formula II compounds): 20 µM

CCCC[NH][Pt]1([NH]CCCC)[O]C(=O)C(CCCC[N+](CC)(CC)CC)C(=O)[O]1 [Compound 67]
LD50 vALUE (normal mice): 0.802 mmol/kg
IC50 (Lung cancer A549; Table 2, formula II compounds): 27 µM
